One test deals with HCMV strain AD169. Nature of the test: Virus entry assay: HCMV infectivity by IE gene expression (immunofluorescence). Format: cell-based, Human cytomegalovirus. The settings on record: NHDFs treated with peptide or antibody prior to HCMV challenge. Here is the method: (§1) For CMV entry assays, subconfluent cells were grown on glass coverslips in 12-well plates. Integrin neutralizing antibodies or peptides were incubated in serum-free DMEM with cell monolayer for 30 minutes at 37° C. Cells were washed with phosphate-buffered saline (PBS) and incubated with HCMV strain AD169, MCMV Smith strain, or MCMV-GFP for 60 minutes at 37° C. Any non-penetrated virus was inactivated with low-pH citrate buffer (40 mM citric acid, 10 mM KCl, 135 mM NaCl, pH 3.0). The cells were incubated 20-24 hours at 37° C. in DMEM supplemented with 2% bovine calf serum (BCS). […] Experiments were performed in triplicate with a minimum of 1000 cells scored per coverslip. […] Cells were incubated 6 hours at 37° C. in DMEM supplemented with 10% BCS prior to lysis (100 mM sodium phosphate, 10 mM KCl, 1 mM magnesium sulfate, 0.1% NP-40, pH 7.4). β-galactosidase activity was measured by addition of o-nitrophenyl-β-D-galactopyranoside (ONPG) and the absorbance was monitored at 420 nm.
FIG. 2A presents the results of a series of assays wherein NHDFs were treated with HCMV gB disintegrin-like peptide, gB disintegrin-like Null peptide, RGD, or RGE peptide prior to HCMV challenge (as indicated in the FIG. 2A). Infectivity was determined by IE gene expression. […]

In a further test the test system is NHDF cells. Nature of the test: Cytoskeletal rearrangement in NHDF cells (actin staining with phalloidin). Format: cell-based, human. The settings on record: compared to buffer alone. The text has this:
gBDLD Triggers Cytoskeletal Rearrangements: β1 integrins are known inducers of broad signal transduction events. […] To test the role of gBDLD in mediating signaling events, we stimulated NHDF cells with buffer alone, gBDLD, or a known cytoskeletal reorganizer (EGF), followed by actin staining with phalloidin.

Another test concerns MCMV. As to the kind of experiment: Virus entry assay: MCMV infectivity (e1-positive cells). Type of test: cell-based, Murine cytomegalovirus. As to conditions: mouse fibroblasts (murine 3T3) treated with peptide, then MCMV challenge. The protocol: as §1
FIG. 4B is a histogram showing the results of an assay wherein GD25, GD25β1 and 3T3 cells were treated with β1, β3, and β1+β3 antibodies, followed by MCMV infection. As described above, infectivity was determined by scoring e1-(early protein) positive cells. […]

The next test relates to HSV-1(KOS)gL86. Nature of the test: HSV entry assay (β-galactosidase activity). Type of test: cell-based, herpes simplex virus-1. As to conditions: cells treated with peptide, then HSV-1 challenge. The protocol:
For CMV entry assays, subconfluent cells were grown on glass coverslips in 12-well plates. Integrin neutralizing antibodies or peptides were incubated in serum-free DMEM with cell monolayer for 30 minutes at 37° C. Cells were washed with phosphate-buffered saline (PBS) and incubated with HCMV strain AD169, MCMV Smith strain, or MCMV-GFP for 60 minutes at 37° C. Any non-penetrated virus was inactivated with low-pH citrate buffer (40 mM citric acid, 10 mM KCl, 135 mM NaCl, pH 3.0). The cells were incubated 20-24 hours at 37° C. in DMEM supplemented with 2% bovine calf serum (BCS). Immunofluorescence analysis was performed as previously described^28 with either mouse anti-IE monoclonal antibody 1203, mouse anti-pp65 monoclonal antibody or rabbit anti-MCMV el polyclonal, followed by detection with a fluorescein-conjugated goat anti-mouse secondary or a fluorescein-conjugated goat anti-rabbit secondary antibody. Nuclei were stained with 300 nM 4′,6-diamidino-2-phenylindole (DAPI). Experiments were performed in triplicate with a minimum of 1000 cells scored per coverslip. […] Cells were incubated 6 hours at 37° C. in DMEM supplemented with 10% BCS prior to lysis (100 mM sodium phosphate, 10 mM KCl, 1 mM magnesium sulfate, 0.1% NP-40, pH 7.4). β-galactosidase activity was measured by addition of o-nitrophenyl-β-D-galactopyranoside (ONPG) and the absorbance was monitored at 420 nm.

A further test concerns HCMV AD 169. As to the kind of experiment: Virus binding assay: HCMV attachment to NHDF cells at 4° C. (gB ELISA). Format: cell-based, Human cytomegalovirus. As to conditions: 1 mM peptide, 1:50 DE9, α2 and α6 antibodies 20 μg/mL. The protocol:
NHDF cells were grown in 96-well plates and treated with integrin-neutralizing antibodies, peptides, or heparin for 60 minutes at 4° C. Cells were then challenged with HCMV AD 169 at a multiplicity of infection (MOI) of 5 pfu/cell for 60 minutes at 4° C. Unbound virus was removed and cells were washed and fixed with 3% paraformaldehyde. Bound HCMV was detected with monoclonal antibody 27-78, horseradish peroxidase (HRP)-conjugated goat anti-mouse secondary antibody, and ImmunoPure TMB Substrate Kit (Pierce, Rockford, Ill.). Absorbance was measured at 450 nm. All experiments were performed in triplicate.
During virus infection, integrins are utilized as primary viral attachment receptors or as post-attachment (fusion-activating) or internalization receptors.^11 To determine at which step in the HCMV entry pathway integrins are functioning, cell binding (i.e., attachment) experiments were performed, as well as assays to measure viral payload delivery into the cytoplasm (internalization). For the binding assays, virus was bound at 4° C. to allow for stable virus binding, but to restrict fusion and internalization. The results are depicted in FIG. 6A. […] Attachment was measured by gB ELISA.
Background: An ELISA detects its analyte on a solid surface through an enzyme-linked reagent.

A further test has as its system HCMV. Nature of the test: Viral payload delivery: pp65 localization in fibroblasts after HCMV infection. Type of test: cell-based, Human cytomegalovirus. The settings on record: human fibroblasts treated, then infected with HCMV. Here is the method:
as §1
Next, an assay was performed that directly measured delivery of an internal virion component. […] FIG. 6B is a histogram showing the results of a series of assays wherein human fibroblasts were treated with various integrin-blocking agents, infected with HCMV, and then assayed for viral payload as measured by pp65 localization. […]

Regarding “AVCSMAGGTAAIRAERNIIC (listed as Human cytomegalovirus) [gB disintegrin-like null peptide, null peptide containing alanine substitutions in the disintegrin-like consensus residues, reference compound]”, the “inhibition of HCMV infectivity compared to infectivity seen with no treatment” value in the test with HCMV strain AD169 is given as “HCMV was able to infect”.

As to “EGF: a known cytoskeletal reorganizer [reference compound]”, the “reorganization of the cytoskeleton” value in the test on NHDF cells was “triggered a dramatic reorganization of the cytoskeleton”.

For “RVCSMAQGTDLIRFERNIIC (listed as Human cytomegalovirus) [gB disintegrin-like peptide, 20 amino acid synthetic peptide encompassing the HCMV gB disintegrin-like domain]”, the “inhibition of HCMV infectivity compared to infectivity seen with no treatment” value in the test with HCMV strain AD169 is listed as “dose-dependent inhibitory response to infection”. The “MCMV infectivity after peptide treatment” value in the test on MCMV was “dramatic reduction in MCMV infectivity”. Besides, in the test with HSV-1(KOS)gL86, the “ability of HSV-1 to infect cells after peptide treatment” value is reported as “no effect”. In the test with HCMV AD 169, the “HCMV attachment (binding) to host cells” value is reported as “no effect on HCMV attachment”. For the same substance, the “uptake of pp65 tegument protein” value in the test with HCMV is on record as “little uptake of the pp65 tegument protein”.

These data come from patent US20150104466A1, “CYTOMEGALOVIRUS DISINTEGRIN-LIKE PEPTIDES” (priority 2013, published 2015).
